The record followed here is US4045556A, “Dipeptide derivatives, process for manufacture and pharmaceutical preparations” (priority 1974, dated 1977).

Common to all, as to format: in vivo
One data set concerns thyrotropin release. Briefly: thyrotropin release (endocrinological properties), standard tests. Particulars: comparison with TRH. An excerpt:
The endocrinological properties of typical compounds of the invention, such as L-2-oxo-imidazolidine-4-carbonyl-L-histidyl-L-prolinamide-dihydrate (Compound A) and of orotyl-L-histidyl-L-prolinamide-dihydrate (Compound B) are compared to that of TRH, the thyrotropin-releasing hormone.

In data set [1] the test system is lowering of body temperature caused by reserpine in mice. Briefly: body temperature test (reserpine hypothermy). The arrangement: sum of the differences between the measured values and the initial temperature: unit not given here. Particulars: for sum of the differences between the measured values and the initial temperature: reserpine 8 mg/kg i.p. 24 h before, rectal temperature every 20 min over 3 h; for effectiveness in counteracting the lowering of body temperature caused by reserpine, compared with TRH: result in words. The protocol: A series of standard tests were run.
Mice are intraperitoneally injected with 8 mg of reserpine per kilogram of body weight with a solution of reserpine, in 5% of ascorbic acid. After twenty-four hours the temperature of the animal has considerably dropped to a temperature, hereinafter designated as the "initial temperature", which is the reference temperature against which the effect of the compounds is measured. Then the test substance is injectd intraperitoneally. Thereafter, every twenty minutes, the temperature (rectal) is recorded over three hours. The sum of the differences between the measured values and the initial temperature are noted. These are reported below for different dosages.

The test system of data set [2] is reserpine-pretreated mice (hypomobility). Briefly: test of motility (reserpine hypomotility). Particulars: for motility measurement: mice, reserpine 5 mg/kg i.p. 10-20 h before, photocell activity cage; for stimulation of the mobility of animals: reserpine-pretreated mice, result in words. Also noted: motility measurement: unit not given here. The protocol: Test mice were injected ten to twenty hours before the experiment with 5 mg of reserpine per kilogram of body weight, intraperitoneally. The animals developed until the beginning of the experiment a marked hypomobility. The test substances (TRH, A, B and C) are then injected intraperitoneally to groups of ten mice. Another group of ten mice pretreated with reserpine only acted as control group. The movement and activity of the animals are determined, measured and registered, the animals being confined in a photocell activity cage.
The average motility measurement for the reserpine pretreated control animals is 14.2, the untreated mice is 123.

Data set [3] has as its system toxicity of amphetamine in mice. Put plainly: amphetamine group toxicity (mortality rate). Particulars: 15 min later amphetamine 7 mg/kg. The protocol:
It is known that the toxicity of amphetamine is increased by administration of anti-depressive compounds, especially those that have a central nervous system stimulating activity, this activity being evidenced by an increased mortality in the test.
The test substances were intraperitoneally injected and fifteen minutes later the test animals were administered amphetamine in a dose of 7 mg per kilogram. […] Those animals which were treated only with amphetamine, as control, were still all alive at that time.

Data set [4] deals with rats. Briefly: wet dog shaking test. Particulars: 25 mg/kg i.p. As for the experimental part: The stimulant activity of Compound B is also shown in the "wet dog shaking" test of rats (standard test listed below).
Compound B was injected intraperitoneally and the animal activity is periodically observed. The effect of the substance is measured by the average number of shaking movements per minute. The dosage applied is 25 mg of substance/kilogram of body weight.

Data set [5] relates to rats. Briefly: LD50 in rats. The protocol:
(§1) For instance with Substance B the following values of the LD50 were determined: […]

The next data set has as its system mice. Put plainly: LD50 in mice. The protocol:
as §1

Data set [6] has as its system central nervous system of test animals. Briefly: central stimulation action in pharmacological tests. Particulars: equal doses of TRH and compound. An excerpt:
The compounds of formula I may be administered orally or parenterally. Their effects are observed quickly. For instance, on parenteral administration the effects occur already after ten minutes.
The most remarkable effects of the new products indicated in pharmacological tests is a central stimulation action.

For the compound `NC(=O)[C@@H]1CCCN1C(=O)[C@H](Cc1c[nH]cn1)NC(=O)C1CNC(=O)N1.O.O` (stereo partly drawn) [Compound A, L-2-oxo-imidazolidine-4-carbonyl-L-histidyl-L-prolinamide-dihydrate], the “dose required relative to TRH to obtain an equally marked thyrotropin release” value in the data set with thyrotropin release is recorded as “ten-times greater dose than TRH”. Also, the “sum of the differences between the measured values and the initial temperature” value in data set [1] (substance 2 mg/kg i.p.) is given as 20.8; in data set [1] (substance 5 mg/kg i.p.) it was 26.1; in data set [1] (substance 10 mg/kg i.p.) it was 32.8; in data set [1] (substance 20 mg/kg i.p.), 40.1. Besides, the “effectiveness in counteracting the lowering of body temperature caused by reserpine, compared with TRH” value in data set [1] is listed as “marketly more effective than TRH”. Besides, the motility measurement came out at 17.0 in data set [2] (substance 3 mg/kg i.p.), 21.7 in data set [2] (substance 5 mg/kg i.p.) and 94.1 in data set [2] (substance 10 mg/kg i.p.). Besides, the “stimulation of the mobility of animals” value in data set [2] is on record as “stimulate the mobility of animals”. Moreover, the “number of dead mice (in percent) sixty minutes after amphetamine” value is 15% in data set [3] (substance 10 mg/kg i.p.); 40% in data set [3] (substance 20 mg/kg i.p.); 60% in data set [3] (substance 50 mg/kg i.p.); 50% in data set [3] (substance 100 mg/kg i.p.); 85% in data set [3] (substance 200 mg/kg i.p.).
Broadly, the LD50 is the dose expected to kill half of the subjects tested. On to `NC(=O)[C@@H]1CCCN1C(=O)[C@H](Cc1c[nH]cn1)NC(=O)c1cc(=O)[nH]c(=O)[nH]1.O.O` [Compound B, orotyl-L-histidyl-L-prolinamide-dihydrate], for which the “dose required relative to TRH to obtain an equally marked thyrotropin release” value with thyrotropin release is “ten-times greater dose than TRH”. The “sum of the differences between the measured values and the initial temperature” value in data set [1] (substance 2 mg/kg i.p.) came out at 34.6; in data set [1] (substance 5 mg/kg i.p.), 42.3; in data set [1] (substance 10 mg/kg i.p.), 55.3; in data set [1] (substance 20 mg/kg i.p.), 67.1. The “effectiveness in counteracting the lowering of body temperature caused by reserpine, compared with TRH” value in data set [1] is given as “marketly more effective than TRH”. The motility measurement turned out to be 98.0 in data set [2] (substance 3 mg/kg i.p.), 106.0 in data set [2] (substance 5 mg/kg i.p.) and 104.0 in data set [2] (substance 10 mg/kg i.p.). In data set [2], the “stimulation of the mobility of animals” value is recorded as “stimulate the mobility of animals”. For the same compound, the “number of dead mice (in percent) sixty minutes after amphetamine” value in data set [3] (substance 10 mg/kg i.p.) is listed as 70%; in data set [3] (substance 20 mg/kg i.p.), 55%; in data set [3] (substance 50 mg/kg i.p.), 75%; in data set [3] (substance 100 mg/kg i.p.) it was 90%; in data set [3] (substance 200 mg/kg i.p.), 80%. The “average number of shaking movements per minute” value (“average number … per minute” below) with rats [4] (15 minutes after application) is listed as 5.25; in the data set on rats [4] (30 minutes after application), 3.8; in the data set with rats [4] (45 minutes after application), 3.2; in the data set with rats [4] (60 minutes after application), 2.15; in the data set with rats [4] (75 minutes after application), 2.1; with rats [4] (90 minutes after application), 1.55. For the same compound, the “average number … per minute” value was determined as 1.05 in the data set with rats [4] (105 minutes after application), 0.6 in the data set with rats [4] (120 minutes after application) and 0.3 with rats [4] (135 minutes after application). Besides, the “duration of action compared with TRH” value with rats [4] (result in words) is recorded as “longer acting than TRH”. In addition, the 50% lethal dose (LD50) with rats [5] (intramuscularly) was more than 4000 mg/kg; in the data set on rats [5] (intraveneously), 1000 mg/kg; in the data set on rats [5] (orally), more than 1000 mg/kg; in the data set with mice (intramuscularly) it was more than 4000 mg/kg; with mice (intraveneously) it was 1200 mg/kg; with mice (orally) it was more than 1000 mg/kg. Also, the “duration of effect relative to TRH” value in data set [6] was “several times longer”. Further, the “strength of stimulating effect on the central nervous system relative to TRH” value in data set [6] is “about five times stronger”.
On to `NC(=O)[C@@H]1CCCN1C(=O)[C@H](Cc1c[nH]cn1)NC(=O)C1CSCC(=O)N1.O` (stereo partly drawn) [Compound C, L-5-oxo-thiomorpholine-3-carbonyl-L-histidyl-L-prolinamide-hydrate], for which the motility measurement in data set [2] (substance 3 mg/kg i.p.) was 51.0; in data set [2] (substance 5 mg/kg i.p.), 72.0; in data set [2] (substance 10 mg/kg i.p.), 69.0. Also, the “stimulation of the mobility of animals” value in data set [2] is “stimulate the mobility of animals”. Moreover, the “number of dead mice (in percent) sixty minutes after amphetamine” value is recorded as 60% in data set [3] (substance 10 mg/kg i.p.); 70% in data set [3] (substance 20 mg/kg i.p.); 70% in data set [3] (substance 50 mg/kg i.p.); 70% in data set [3] (substance 100 mg/kg i.p.); 90% in data set [3] (substance 200 mg/kg i.p.).
Consider `NC(=O)[C@@H]1CCCN1C(=O)[C@H](Cc1c[nH]cn1)NC(=O)[C@@H]1CCC(=O)N1` [TRH, pyroglutamyl-histidyl-proline amide, reference compound], for which the “sum of the differences between the measured values and the initial temperature” value in data set [1] (substance 2 mg/kg i.p.) turned out to be 18.4; in data set [1] (substance 5 mg/kg i.p.) it was 16.5; in data set [1] (substance 10 mg/kg i.p.), 27.9; in data set [1] (substance 20 mg/kg i.p.), 32.8. The motility measurement in data set [2] (substance 3 mg/kg i.p.) is 0.9; in data set [2] (substance 5 mg/kg i.p.), 1.2; in data set [2] (substance 10 mg/kg i.p.), 44.0. For the same compound, the “number of dead mice (in percent) sixty minutes after amphetamine” value was 20% in data set [3] (substance 10 mg/kg i.p.); 25% in data set [3] (substance 20 mg/kg i.p.); 55% in data set [3] (substance 50 mg/kg i.p.); 65% in data set [3] (substance 100 mg/kg i.p.); 65% in data set [3] (substance 200 mg/kg i.p.). The “average number … per minute” value in the data set with rats [4] (15 minutes after application) is given as 2.9; with rats [4] (30 minutes after application), 1.0.
